How the values were obtained:
[1] = molecular target: Muscarinic acetylcholine receptor M5 (Homo sapiens) (UniProt P08912); details: Compound concentration 10.0 uM
[2] = molecular target: Mitogen-activated protein kinase kinase kinase 19 (Homo sapiens) (UniProt Q56UN5); details: Compound concentration 1000.0 nM
[3] = molecular target: Ephrin type-A receptor 5 (Homo sapiens) (UniProt P54756); details: Compound concentration 1000.0 nM
[4] = molecular target: Ribosomal protein S6 kinase beta-1 (Homo sapiens) (UniProt P23443); details: Compound concentration 1000.0 nM
[5] = molecular target: Calcium/calmodulin-dependent protein kinase type 1 (Homo sapiens) (UniProt Q14012); details: Compound concentration 1000.0 nM
[6] = molecular target: Dual specificity protein kinase CLK4 (Homo sapiens) (UniProt Q9HAZ1); details: Compound concentration 1000.0 nM
[7] = system: Leucine-rich repeat serine/threonine-protein kinase 2 (Homo sapiens), Q5S007 [G2019S]; details: Compound concentration 1000.0 nM
[8] = molecular target: T1, Dual specificity mitogen-activated protein kinase kinase 6 (Homo sapiens) (UniProt P52564); details: Compound concentration 1000.0 nM
T1 sequence (whole entry): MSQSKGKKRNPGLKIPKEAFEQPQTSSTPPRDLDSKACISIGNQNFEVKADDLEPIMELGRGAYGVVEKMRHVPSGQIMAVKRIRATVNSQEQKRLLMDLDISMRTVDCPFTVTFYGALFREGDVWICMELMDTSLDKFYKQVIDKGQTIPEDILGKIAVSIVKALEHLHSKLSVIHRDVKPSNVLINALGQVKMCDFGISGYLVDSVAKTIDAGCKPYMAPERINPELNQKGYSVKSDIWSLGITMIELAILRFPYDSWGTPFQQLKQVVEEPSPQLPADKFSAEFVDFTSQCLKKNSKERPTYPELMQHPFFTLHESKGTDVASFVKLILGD

[9] = molecular target: Mitogen-activated protein kinase kinase kinase 11 (Homo sapiens) (UniProt Q16584); details: Compound concentration 1000.0 nM
Sequence of Mitogen-activated protein kinase kinase kinase 11 (Homo sapiens) (Q16584 whole entry, looked up): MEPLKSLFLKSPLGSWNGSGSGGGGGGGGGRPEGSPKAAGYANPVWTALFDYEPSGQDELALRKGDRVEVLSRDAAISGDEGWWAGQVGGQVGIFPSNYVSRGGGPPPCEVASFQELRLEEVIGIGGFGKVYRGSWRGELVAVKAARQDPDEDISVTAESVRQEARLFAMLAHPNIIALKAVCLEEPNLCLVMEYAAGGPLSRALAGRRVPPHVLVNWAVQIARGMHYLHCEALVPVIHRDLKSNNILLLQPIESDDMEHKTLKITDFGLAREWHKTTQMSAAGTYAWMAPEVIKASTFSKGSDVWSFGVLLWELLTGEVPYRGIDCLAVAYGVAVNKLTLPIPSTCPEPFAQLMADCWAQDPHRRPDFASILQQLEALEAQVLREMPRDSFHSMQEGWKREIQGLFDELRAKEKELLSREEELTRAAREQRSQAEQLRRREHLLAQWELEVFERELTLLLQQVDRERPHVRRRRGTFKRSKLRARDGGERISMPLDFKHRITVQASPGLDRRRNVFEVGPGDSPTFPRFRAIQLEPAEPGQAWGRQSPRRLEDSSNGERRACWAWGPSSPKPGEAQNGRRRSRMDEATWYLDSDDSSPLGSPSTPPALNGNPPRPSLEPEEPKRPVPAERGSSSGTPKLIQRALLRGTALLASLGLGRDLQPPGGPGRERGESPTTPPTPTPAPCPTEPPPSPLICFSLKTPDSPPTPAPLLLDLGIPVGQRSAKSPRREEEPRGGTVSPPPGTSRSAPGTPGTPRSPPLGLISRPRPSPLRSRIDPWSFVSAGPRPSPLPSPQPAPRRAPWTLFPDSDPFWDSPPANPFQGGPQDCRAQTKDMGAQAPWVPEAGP

[10] = molecular target: Death-associated protein kinase 3 (Homo sapiens) (UniProt O43293); details: Compound concentration 1000.0 nM
[11] = system: Tyrosine-protein kinase ABL1 (Homo sapiens), P00519 [Q252H]; details: Compound concentration 1000.0 nM
[12] = molecular target: Activin receptor type-2A (Homo sapiens) (UniProt P27037); details: Compound concentration 1000.0 nM
[13] = molecular target: Wee1-like protein kinase 2 (Homo sapiens) (UniProt P0C1S8); details: Compound concentration 1000.0 nM
[14] = molecular target: Cyclin-dependent kinase 18 (Homo sapiens) (UniProt Q07002); details: Compound concentration 1000.0 nM
Sequence of Cyclin-dependent kinase 18 (Homo sapiens) (Q07002 whole entry): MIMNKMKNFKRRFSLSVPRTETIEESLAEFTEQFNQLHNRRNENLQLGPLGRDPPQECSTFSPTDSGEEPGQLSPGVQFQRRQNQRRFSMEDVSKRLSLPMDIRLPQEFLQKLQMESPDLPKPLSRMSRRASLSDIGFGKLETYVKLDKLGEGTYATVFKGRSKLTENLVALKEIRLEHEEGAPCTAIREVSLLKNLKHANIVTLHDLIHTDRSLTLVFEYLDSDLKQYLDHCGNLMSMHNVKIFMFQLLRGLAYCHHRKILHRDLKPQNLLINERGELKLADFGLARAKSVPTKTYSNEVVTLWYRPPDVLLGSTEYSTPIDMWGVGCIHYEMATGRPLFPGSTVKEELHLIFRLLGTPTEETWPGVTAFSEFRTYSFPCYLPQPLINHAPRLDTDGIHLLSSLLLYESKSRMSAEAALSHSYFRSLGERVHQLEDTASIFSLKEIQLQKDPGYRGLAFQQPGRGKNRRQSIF

[15] = molecular target: Calcium/calmodulin-dependent protein kinase type II subunit alpha (Homo sapiens) (UniProt Q9UQM7); details: Compound concentration 1000.0 nM
Sequence of Calcium/calmodulin-dependent protein kinase type II subunit alpha (Homo sapiens) (Q9UQM7 whole entry): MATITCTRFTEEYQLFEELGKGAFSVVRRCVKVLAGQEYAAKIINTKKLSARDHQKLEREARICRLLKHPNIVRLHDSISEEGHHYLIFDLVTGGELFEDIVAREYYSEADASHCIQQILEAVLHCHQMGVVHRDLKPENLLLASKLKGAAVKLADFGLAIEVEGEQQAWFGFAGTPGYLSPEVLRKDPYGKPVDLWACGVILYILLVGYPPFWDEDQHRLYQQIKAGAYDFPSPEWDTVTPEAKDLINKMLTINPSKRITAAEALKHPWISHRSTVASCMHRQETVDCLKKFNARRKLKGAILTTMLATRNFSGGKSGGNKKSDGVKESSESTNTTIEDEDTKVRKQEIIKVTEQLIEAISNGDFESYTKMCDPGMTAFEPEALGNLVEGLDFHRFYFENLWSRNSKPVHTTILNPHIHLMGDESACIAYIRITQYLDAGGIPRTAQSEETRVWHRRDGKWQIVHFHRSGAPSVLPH

[16] = molecular target: Serine/threonine-protein kinase SBK1 (Homo sapiens) (UniProt Q52WX2); details: Compound concentration 1000.0 nM
[17] = molecular target: Ephrin type-A receptor 4 (Homo sapiens) (UniProt P54764); details: Compound concentration 1000.0 nM
[18] = system: Tyrosine-protein kinase ABL1 (Homo sapiens), P00519 [F317L]; details: Compound concentration 1000.0 nM
[19] = molecular target: Serine/threonine-protein kinase DCLK1 (Homo sapiens) (UniProt O15075); details: Compound concentration 1000.0 nM
[20] = molecular target: Homeodomain-interacting protein kinase 2 (Homo sapiens) (UniProt Q9H2X6); details: Compound concentration 1000.0 nM
[21] = molecular target: Aurora kinase C (Homo sapiens) (UniProt Q9UQB9); details: Compound concentration 1000.0 nM
Sequence of Aurora kinase C (Homo sapiens) (Q9UQB9 whole entry): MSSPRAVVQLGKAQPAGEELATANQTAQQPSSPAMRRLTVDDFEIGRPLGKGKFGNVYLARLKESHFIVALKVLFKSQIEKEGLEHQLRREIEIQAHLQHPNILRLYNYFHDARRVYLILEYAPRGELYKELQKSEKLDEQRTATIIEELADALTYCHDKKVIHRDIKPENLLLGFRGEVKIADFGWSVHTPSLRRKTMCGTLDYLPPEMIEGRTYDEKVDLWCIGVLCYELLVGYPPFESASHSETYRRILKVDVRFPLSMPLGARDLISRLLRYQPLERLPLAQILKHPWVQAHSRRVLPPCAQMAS

[22] = molecular target: T2, Serine/threonine-protein kinase tousled-like 1 (Homo sapiens) (UniProt Q9UKI8); details: Compound concentration 1000.0 nM
T2 sequence (whole entry): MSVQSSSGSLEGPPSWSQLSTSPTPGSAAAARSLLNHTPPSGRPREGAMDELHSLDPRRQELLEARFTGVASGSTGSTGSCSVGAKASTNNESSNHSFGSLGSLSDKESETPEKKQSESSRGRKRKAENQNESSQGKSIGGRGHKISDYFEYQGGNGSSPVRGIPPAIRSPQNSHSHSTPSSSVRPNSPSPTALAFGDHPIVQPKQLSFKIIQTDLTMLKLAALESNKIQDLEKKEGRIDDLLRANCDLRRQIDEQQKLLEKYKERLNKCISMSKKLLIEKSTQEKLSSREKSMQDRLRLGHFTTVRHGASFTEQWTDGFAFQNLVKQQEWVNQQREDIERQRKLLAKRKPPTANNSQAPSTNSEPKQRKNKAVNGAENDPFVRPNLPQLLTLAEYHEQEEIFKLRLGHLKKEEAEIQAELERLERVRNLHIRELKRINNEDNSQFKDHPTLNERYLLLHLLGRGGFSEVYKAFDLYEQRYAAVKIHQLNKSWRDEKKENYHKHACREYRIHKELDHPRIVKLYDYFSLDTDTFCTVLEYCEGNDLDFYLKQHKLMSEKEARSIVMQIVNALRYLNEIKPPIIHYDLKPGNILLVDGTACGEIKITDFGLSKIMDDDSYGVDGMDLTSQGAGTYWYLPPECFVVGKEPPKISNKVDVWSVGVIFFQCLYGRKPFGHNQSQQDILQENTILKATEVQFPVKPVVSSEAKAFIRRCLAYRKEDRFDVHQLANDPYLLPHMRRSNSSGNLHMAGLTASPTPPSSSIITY

[23] = molecular target: Serine/threonine-protein kinase PRP4 homolog (Homo sapiens) (UniProt Q13523); details: Compound concentration 1000.0 nM
[24] = molecular target: STE20-like serine/threonine-protein kinase (Homo sapiens) (UniProt Q9H2G2); details: Compound concentration 1000.0 nM
[25] = molecular target: RAC-alpha serine/threonine-protein kinase (Homo sapiens) (UniProt P31749); details: Compound concentration 1000.0 nM
Sequence of RAC-alpha serine/threonine-protein kinase (Homo sapiens) (P31749 whole entry): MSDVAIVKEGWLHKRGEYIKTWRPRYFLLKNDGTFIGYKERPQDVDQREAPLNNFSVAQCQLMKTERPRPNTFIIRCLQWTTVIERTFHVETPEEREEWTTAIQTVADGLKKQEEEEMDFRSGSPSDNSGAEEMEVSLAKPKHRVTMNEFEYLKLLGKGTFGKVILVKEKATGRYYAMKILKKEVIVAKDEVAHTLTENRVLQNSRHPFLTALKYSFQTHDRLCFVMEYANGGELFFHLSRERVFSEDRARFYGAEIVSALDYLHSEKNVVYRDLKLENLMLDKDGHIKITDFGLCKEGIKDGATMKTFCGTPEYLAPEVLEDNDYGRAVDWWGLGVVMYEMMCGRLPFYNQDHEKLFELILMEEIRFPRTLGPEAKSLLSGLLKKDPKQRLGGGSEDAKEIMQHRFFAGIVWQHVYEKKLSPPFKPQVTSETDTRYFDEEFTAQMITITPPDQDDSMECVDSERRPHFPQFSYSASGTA

[26] = molecular target: Sodium-dependent serotonin transporter (Homo sapiens) (UniProt P31645); details: Compound concentration 10.0 uM
[27] = system: Hepatocyte growth factor receptor (Homo sapiens), P08581 [Y1235D]; details: Compound concentration 1000.0 nM
[28] = molecular target: Serine/threonine-protein kinase N2 (Homo sapiens) (UniProt Q16513); details: Compound concentration 1000.0 nM
Sequence of Serine/threonine-protein kinase N2 (Homo sapiens) (Q16513 whole entry, looked up): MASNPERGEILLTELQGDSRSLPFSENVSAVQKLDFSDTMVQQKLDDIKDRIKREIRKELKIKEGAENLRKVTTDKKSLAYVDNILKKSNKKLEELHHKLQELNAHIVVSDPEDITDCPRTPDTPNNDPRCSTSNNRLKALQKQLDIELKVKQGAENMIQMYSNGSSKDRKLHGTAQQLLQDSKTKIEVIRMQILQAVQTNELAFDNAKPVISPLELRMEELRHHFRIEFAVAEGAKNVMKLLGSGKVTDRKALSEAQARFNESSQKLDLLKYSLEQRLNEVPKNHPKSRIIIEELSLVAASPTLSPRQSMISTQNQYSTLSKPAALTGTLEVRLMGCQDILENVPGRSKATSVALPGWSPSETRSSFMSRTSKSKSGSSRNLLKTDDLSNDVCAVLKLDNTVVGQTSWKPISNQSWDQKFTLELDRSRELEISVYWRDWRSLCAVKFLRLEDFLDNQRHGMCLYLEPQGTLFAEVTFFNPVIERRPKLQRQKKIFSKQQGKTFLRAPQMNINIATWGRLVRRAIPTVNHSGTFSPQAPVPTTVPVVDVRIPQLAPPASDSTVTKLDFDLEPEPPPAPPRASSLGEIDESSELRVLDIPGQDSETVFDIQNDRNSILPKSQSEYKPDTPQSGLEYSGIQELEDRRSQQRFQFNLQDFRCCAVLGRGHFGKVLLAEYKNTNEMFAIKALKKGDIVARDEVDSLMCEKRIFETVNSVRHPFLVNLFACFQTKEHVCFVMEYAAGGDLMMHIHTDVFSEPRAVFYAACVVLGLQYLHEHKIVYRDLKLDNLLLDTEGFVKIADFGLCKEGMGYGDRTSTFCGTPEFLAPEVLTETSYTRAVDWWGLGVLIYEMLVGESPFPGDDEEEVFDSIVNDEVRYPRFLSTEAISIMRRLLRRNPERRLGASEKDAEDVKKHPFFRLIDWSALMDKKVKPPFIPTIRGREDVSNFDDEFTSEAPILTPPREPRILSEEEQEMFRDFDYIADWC

[29] = molecular target: ALK tyrosine kinase receptor (Homo sapiens) (UniProt Q9UM73); details: Compound concentration 1000.0 nM
[30] = molecular target: Tyrosine-protein kinase JAK1 (Homo sapiens) (UniProt P23458); details: Compound concentration 1000.0 nM
Sequence of Tyrosine-protein kinase JAK1 (Homo sapiens) (P23458 whole entry): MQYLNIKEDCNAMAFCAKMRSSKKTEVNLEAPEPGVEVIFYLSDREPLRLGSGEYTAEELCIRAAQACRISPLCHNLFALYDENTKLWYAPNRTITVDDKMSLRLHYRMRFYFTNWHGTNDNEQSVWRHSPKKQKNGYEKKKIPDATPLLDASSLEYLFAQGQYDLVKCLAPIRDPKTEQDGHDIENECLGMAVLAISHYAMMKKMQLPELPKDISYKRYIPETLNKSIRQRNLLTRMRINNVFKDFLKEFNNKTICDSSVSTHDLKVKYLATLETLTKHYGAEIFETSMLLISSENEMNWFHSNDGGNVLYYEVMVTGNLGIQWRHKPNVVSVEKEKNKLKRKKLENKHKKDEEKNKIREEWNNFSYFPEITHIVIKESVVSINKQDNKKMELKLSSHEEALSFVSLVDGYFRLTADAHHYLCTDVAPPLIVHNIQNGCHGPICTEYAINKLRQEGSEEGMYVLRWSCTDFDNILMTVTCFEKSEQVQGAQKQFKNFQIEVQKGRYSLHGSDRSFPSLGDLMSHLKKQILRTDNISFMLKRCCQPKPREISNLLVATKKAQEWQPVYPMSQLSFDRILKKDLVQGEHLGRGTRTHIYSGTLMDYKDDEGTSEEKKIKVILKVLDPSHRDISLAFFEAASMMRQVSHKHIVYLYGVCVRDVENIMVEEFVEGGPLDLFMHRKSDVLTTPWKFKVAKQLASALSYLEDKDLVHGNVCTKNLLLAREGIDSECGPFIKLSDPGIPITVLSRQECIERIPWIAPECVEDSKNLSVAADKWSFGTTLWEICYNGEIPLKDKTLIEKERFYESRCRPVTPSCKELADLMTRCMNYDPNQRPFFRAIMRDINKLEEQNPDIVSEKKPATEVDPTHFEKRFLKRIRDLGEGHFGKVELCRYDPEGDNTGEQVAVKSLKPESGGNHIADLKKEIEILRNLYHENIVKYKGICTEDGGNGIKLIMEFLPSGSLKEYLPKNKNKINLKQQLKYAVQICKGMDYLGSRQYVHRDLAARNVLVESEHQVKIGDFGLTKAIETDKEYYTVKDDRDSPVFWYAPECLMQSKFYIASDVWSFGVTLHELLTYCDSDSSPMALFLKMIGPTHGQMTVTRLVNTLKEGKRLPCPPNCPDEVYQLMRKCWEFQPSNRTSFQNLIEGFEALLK

| SMILES | inhibition [1] [%] | residual activity [2] [%] | residual activity [3] [%] | residual activity [4] [%] | residual activity [5] [%] | residual activity [6] [%] | residual activity [7] [%] | residual activity [8] [%] | residual activity [9] [%] | residual activity [10] [%] | residual activity [11] [%] | residual activity [12] [%] | residual activity [13] [%] | residual activity [14] [%] | residual activity [15] [%] | residual activity [16] [%] | residual activity [17] [%] | residual activity [18] [%] | residual activity [19] [%] | residual activity [20] [%] | further results |
| --- | --- | --- | --- | --- | --- | --- | --- | --- | --- | --- | --- | --- | --- | --- | --- | --- | --- | --- | --- | --- | --- |
| CCc1ccccc1C(=O)Nc1n[nH]c2c(C)c(F)c(C3C(C#N)=C(C)N(C)C(C)=C3C#N)cc12 [BAY-3827] | 17.9 | 74 | 87 | 80 | 76 | 100 | 100 | 98 | 88 | 71 | 82 | 100 | 82 | 75 | 47 | 100 | 100 | 89 | 87 | 100 | residual activity [21]: 29%; residual activity [22]: 100%; residual activity [23]: 72%; residual activity [24]: 100%; residual activity [25]: 75%; inhibition [26]: -6.24%; residual activity [27]: 16%; residual activity [28]: 100%; residual activity [29]: 98%; residual activity [30]: 91% |
| CC1=C(C#N)C(c2ccc3c(c2)c(NC(=O)c2ccccc2C)nn3C)C(C#N)=C(C)N1 [BAY-974] | 6.82 | 82 | 77 | 74 | 98 | 76 | 100 | 95 | 96 | 88 | 100 | 97 | 100 | 100 | 90 | 98 | 93 | 91 | 79 | 73 | residual activity [21]: 97%; residual activity [22]: 88%; residual activity [23]: 77%; residual activity [24]: 88%; residual activity [25]: 94%; inhibition [26]: -6.29%; residual activity [27]: 74%; residual activity [28]: 100%; residual activity [29]: 100%; residual activity [30]: 90% |

Reference: ChEMBL document CHEMBL4507319 (2021)
